Measurements from US9340590B2 (priority 2011, dated 2016).
Positions of bridges follow the written chain, without caps; N, C: chain ends. Non-standard residues stand in square brackets, D forms with d. Residues, ends and D or L forms follow the SMILES beside them. 1Nal = N[C@@H](Cc1cccc2ccccc12)C(=O)O

Legend:
Test in all cases: cell-based
hNav1.7 = hNav1.7 (Homo sapiens, UniProt Q15858); details: Nav1.7 Use IC50
hNav1.5 = hNav1.5 (Homo sapiens, UniProt Q14524)
hNav1.3 = hNav1.3 (Homo sapiens, UniProt Q9NY46); format: cell-based; details: Nav1.3 Use IC50

Sequence of hNav1.5 (Q14524 whole entry, looked up): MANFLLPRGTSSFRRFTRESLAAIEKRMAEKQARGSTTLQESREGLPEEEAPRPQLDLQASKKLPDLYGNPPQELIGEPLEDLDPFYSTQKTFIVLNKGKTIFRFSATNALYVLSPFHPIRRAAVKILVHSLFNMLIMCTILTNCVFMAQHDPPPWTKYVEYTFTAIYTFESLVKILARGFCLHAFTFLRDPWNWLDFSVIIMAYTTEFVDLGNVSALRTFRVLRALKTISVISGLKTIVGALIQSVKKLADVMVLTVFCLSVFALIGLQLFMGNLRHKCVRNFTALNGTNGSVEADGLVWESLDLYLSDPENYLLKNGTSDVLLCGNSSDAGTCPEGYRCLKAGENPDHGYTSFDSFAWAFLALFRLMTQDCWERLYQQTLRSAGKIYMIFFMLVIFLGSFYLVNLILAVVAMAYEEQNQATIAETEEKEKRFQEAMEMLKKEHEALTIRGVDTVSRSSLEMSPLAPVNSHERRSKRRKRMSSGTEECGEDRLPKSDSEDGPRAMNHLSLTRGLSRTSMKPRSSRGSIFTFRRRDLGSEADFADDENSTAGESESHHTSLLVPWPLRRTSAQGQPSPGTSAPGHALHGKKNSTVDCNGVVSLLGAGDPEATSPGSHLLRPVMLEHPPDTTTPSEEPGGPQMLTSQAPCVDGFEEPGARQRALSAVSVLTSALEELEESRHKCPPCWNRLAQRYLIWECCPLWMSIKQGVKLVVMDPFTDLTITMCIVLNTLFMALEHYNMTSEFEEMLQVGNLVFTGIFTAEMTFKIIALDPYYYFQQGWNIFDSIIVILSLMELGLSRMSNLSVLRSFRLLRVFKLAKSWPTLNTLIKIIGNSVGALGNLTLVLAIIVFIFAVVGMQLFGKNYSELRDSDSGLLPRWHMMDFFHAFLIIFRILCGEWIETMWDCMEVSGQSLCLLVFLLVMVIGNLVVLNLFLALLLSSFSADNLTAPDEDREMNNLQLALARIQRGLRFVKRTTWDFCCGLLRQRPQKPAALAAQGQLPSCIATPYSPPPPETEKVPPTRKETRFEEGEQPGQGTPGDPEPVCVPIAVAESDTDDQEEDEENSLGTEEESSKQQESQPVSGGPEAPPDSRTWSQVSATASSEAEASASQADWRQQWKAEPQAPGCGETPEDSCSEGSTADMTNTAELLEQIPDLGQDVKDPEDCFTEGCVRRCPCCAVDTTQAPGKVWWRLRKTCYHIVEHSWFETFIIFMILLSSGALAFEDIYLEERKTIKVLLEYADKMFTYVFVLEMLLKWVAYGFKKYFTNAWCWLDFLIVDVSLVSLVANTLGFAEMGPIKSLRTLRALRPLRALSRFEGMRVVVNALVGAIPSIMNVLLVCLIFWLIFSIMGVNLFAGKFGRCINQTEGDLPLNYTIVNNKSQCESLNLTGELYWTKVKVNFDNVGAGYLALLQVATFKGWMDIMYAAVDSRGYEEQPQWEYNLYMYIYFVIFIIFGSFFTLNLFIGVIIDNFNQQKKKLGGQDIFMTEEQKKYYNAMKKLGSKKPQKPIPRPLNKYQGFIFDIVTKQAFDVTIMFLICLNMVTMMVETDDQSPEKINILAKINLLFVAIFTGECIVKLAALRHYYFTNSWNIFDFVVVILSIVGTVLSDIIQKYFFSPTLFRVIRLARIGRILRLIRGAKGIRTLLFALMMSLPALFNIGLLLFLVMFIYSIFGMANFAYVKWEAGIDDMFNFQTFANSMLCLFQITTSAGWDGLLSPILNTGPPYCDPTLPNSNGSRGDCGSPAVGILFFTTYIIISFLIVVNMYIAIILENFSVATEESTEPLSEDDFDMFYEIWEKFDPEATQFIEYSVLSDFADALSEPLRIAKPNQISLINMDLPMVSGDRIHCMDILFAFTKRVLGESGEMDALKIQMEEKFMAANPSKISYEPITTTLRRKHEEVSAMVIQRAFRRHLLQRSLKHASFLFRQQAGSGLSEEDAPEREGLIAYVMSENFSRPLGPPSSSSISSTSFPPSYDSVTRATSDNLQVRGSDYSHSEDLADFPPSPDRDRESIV
Sequence of hNav1.7 (Q15858 whole entry, looked up): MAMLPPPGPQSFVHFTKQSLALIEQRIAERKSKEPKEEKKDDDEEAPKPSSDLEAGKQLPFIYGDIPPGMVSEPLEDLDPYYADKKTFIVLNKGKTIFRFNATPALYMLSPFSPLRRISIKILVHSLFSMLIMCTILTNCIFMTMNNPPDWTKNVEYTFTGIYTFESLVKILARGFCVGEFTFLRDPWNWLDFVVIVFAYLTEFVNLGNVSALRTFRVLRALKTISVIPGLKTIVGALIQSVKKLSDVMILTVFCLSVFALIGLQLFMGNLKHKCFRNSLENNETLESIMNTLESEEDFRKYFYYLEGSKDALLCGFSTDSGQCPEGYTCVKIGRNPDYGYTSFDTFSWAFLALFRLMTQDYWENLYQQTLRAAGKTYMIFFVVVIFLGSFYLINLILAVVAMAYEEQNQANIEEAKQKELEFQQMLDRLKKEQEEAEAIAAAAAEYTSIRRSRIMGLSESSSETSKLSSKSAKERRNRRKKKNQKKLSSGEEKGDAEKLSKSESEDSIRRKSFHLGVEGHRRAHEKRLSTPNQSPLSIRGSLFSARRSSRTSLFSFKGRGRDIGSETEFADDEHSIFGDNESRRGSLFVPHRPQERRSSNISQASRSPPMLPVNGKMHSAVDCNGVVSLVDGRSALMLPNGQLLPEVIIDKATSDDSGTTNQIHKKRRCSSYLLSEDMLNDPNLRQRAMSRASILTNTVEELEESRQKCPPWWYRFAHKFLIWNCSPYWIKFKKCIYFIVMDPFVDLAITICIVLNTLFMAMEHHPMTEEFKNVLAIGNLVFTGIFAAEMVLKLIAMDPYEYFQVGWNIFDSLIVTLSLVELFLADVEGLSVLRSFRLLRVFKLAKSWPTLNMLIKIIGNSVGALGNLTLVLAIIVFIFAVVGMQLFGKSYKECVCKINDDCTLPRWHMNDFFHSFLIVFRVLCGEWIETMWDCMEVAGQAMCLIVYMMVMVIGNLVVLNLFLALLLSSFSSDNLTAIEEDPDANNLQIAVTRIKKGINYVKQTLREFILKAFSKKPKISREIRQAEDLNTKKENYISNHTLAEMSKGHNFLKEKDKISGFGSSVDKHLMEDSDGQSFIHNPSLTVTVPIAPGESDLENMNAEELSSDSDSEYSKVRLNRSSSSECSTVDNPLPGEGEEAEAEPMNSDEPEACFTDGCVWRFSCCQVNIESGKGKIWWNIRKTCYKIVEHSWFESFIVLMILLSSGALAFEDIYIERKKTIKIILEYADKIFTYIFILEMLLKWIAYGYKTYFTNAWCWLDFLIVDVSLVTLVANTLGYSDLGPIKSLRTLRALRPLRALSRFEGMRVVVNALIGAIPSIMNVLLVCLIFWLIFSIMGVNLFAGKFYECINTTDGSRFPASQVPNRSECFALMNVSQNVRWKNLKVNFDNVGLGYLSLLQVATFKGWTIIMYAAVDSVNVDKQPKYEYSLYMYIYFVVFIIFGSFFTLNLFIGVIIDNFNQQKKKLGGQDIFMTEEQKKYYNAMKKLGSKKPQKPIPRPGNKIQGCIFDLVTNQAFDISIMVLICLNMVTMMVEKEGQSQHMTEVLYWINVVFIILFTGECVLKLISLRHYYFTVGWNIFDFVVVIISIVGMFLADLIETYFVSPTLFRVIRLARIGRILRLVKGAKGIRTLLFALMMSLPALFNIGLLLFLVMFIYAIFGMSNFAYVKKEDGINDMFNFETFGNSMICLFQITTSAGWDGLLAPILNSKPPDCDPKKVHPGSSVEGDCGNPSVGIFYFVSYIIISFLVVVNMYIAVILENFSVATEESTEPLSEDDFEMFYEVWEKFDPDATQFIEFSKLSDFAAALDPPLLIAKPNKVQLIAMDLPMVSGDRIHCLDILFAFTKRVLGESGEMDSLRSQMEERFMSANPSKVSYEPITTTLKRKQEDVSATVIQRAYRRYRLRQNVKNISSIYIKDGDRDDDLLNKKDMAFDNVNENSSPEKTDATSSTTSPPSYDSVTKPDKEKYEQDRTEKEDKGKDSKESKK

SMILES	IC50 (hNav1.7)	IC50 (hNav1.5)	IC50 (hNav1.3)
CC[C@H](C)[C@@H]1NC(=O)[C@@H]2CSSC[C@@H]3NC(=O)[C@H](C(C)C)NC(=O)[C@H](CC(C)C)NC(=O)[C@H](CC(N)=O)NC(=O)[C@@H]4CCCN4C(=O)[C@H](CCCNC(=N)N)NC(=O)[C@H](CSSC[C@H](NC(=O)[C@@H](N)CC(=O)O)C(=O)N[C@@H](CC(C)C)C(=O)NCC(=O)N[C@@H](C)C(=O)N[C@@H](Cc4cccc5ccccc45)C(=O)N[C@@H](CCCNC(=N)N)C(=O)N[C@@H](CCCCN)C(=O)N2)NC(=O)[C@H](CSSC[C@@H](C(=O)N[C@@H](CCCCN)C(=O)N[C@@H](Cc2ccc(O)cc2)C(=O)N[C@H](C(=O)N[C@@H](Cc2ccccc2)C(N)=O)C(C)C)NC(=O)[C@H](Cc2c[nH]c4ccccc24)NC(=O)[C@H](CCCCN)NC(=O)[C@H](Cc2cnc[nH]2)NC(=O)[C@H]([C@@H](C)O)NC(=O)[C@H](CCCNC(=N)N)NC(=O)[C@H](CO)NC3=O)NC(=O)[C@H](CCCCN)NC(=O)[C@H](CC(=O)O)NC(=O)[C@H](CC(N)=O)NC(=O)[C@H](CC(=O)O)NC(=O)[C@@H]2CCCN2C1=O [[Ala5;1-Nal6]GpTx-1(1-34)]	2 nM	3810 nM	8 nM
CC[C@H](C)[C@@H]1NC(=O)[C@@H]2CSSC[C@@H]3NC(=O)[C@H](C(C)C)NC(=O)[C@H](CC(C)C)NC(=O)[C@H](CC(N)=O)NC(=O)[C@@H]4CCCN4C(=O)[C@H](CCCNC(=N)N)NC(=O)[C@H](CSSC[C@H](NC(=O)[C@@H](N)CC(=O)O)C(=O)N[C@@H](CC(C)C)C(=O)NCC(=O)N[C@@H](C)C(=O)N[C@@H](CCSC)C(=O)N[C@@H](CCCNC(=N)N)C(=O)N[C@@H](CCCCN)C(=O)N2)NC(=O)[C@H](CSSC[C@@H](C(=O)N[C@@H](CCCCN)C(=O)N[C@@H](Cc2cccc4ccccc24)C(=O)N[C@H](C(=O)N[C@@H](Cc2ccccc2)C(N)=O)C(C)C)NC(=O)[C@H](Cc2c[nH]c4ccccc24)NC(=O)[C@H](CCCCN)NC(=O)[C@H](Cc2c[nH]cn2)NC(=O)[C@H]([C@@H](C)O)NC(=O)[C@H](CCCNC(=N)N)NC(=O)[C@H](CO)NC3=O)NC(=O)[C@H](CCCCN)NC(=O)[C@H](CC(=O)O)NC(=O)[C@H](CC(N)=O)NC(=O)[C@H](CC(=O)O)NC(=O)[C@@H]2CCCN2C1=O [[Ala5;1-Nal32]GpTx-1(1-34)] (H-DCLGAMRKCIPDNDKCCRPNLVCSRTHKWCK[1Nal]VF-NH2; disulfide 2-17, 9-23, 16-30)	28 nM	> 10000 nM	122 nM
CC[C@H](C)[C@@H]1NC(=O)[C@@H]2CSSC[C@@H]3NC(=O)[C@H](C(C)C)NC(=O)[C@H](CC(C)C)NC(=O)[C@H](CC(N)=O)NC(=O)[C@@H]4CCCN4C(=O)[C@H](CCCNC(=N)N)NC(=O)[C@H](CSSC[C@H](NC(=O)[C@@H](N)CC(=O)O)C(=O)N[C@@H](CC(C)C)C(=O)NCC(=O)N[C@@H](C)C(=O)N[C@@H](CCSC)C(=O)N[C@@H](CCCNC(=N)N)C(=O)N[C@@H](CCCCN)C(=O)N2)NC(=O)[C@H](CSSC[C@@H](C(=O)N[C@@H](CCCCN)C(=O)N[C@@H](Cc2ccc(O)cc2)C(=O)N[C@@H](Cc2cccc4ccccc24)C(=O)N[C@@H](Cc2ccccc2)C(N)=O)NC(=O)[C@H](Cc2c[nH]c4ccccc24)NC(=O)[C@H](CCCCN)NC(=O)[C@H](Cc2c[nH]cn2)NC(=O)[C@H]([C@@H](C)O)NC(=O)[C@H](CCCNC(=N)N)NC(=O)[C@H](CO)NC3=O)NC(=O)[C@H](CCCCN)NC(=O)[C@H](CC(=O)O)NC(=O)[C@H](CC(N)=O)NC(=O)[C@H](CC(=O)O)NC(=O)[C@@H]2CCCN2C1=O [[Ala5;1-Nal33]GpTx-1(1-34)] (H-DCLGAMRKCIPDNDKCCRPNLVCSRTHKWCKY[1Nal]F-NH2; disulfide 2-17, 9-23, 16-30)	48 nM	> 10000 nM	201 nM
CC[C@H](C)[C@@H]1NC(=O)[C@@H]2CSSC[C@@H]3NC(=O)[C@H](C(C)C)NC(=O)[C@H](CC(C)C)NC(=O)[C@H](CC(N)=O)NC(=O)[C@@H]4CCCN4C(=O)[C@H](CCCNC(=N)N)NC(=O)[C@H](CSSC[C@H](NC(=O)[C@@H](N)CC(=O)O)C(=O)N[C@@H](CC(C)C)C(=O)NCC(=O)N[C@@H](C)C(=O)N[C@@H](CCSC)C(=O)N[C@@H](CCCNC(=N)N)C(=O)N[C@@H](CCCCN)C(=O)N2)NC(=O)[C@H](CSSC[C@@H](C(=O)N[C@@H](CCCCN)C(=O)N[C@@H](Cc2ccc(O)cc2)C(=O)N[C@H](C(=O)N[C@@H](Cc2ccccc2)C(N)=O)C(C)C)NC(=O)[C@H](Cc2c[nH]c4ccccc24)NC(=O)[C@H](CCCNC(=N)N)NC(=O)[C@H](Cc2c[nH]cn2)NC(=O)[C@H]([C@@H](C)O)NC(=O)[C@H](CCCNC(=N)N)NC(=O)[C@H](CO)NC3=O)NC(=O)[C@H](CCCCN)NC(=O)[C@H](CC(=O)O)NC(=O)[C@H](CC(N)=O)NC(=O)[C@H](CC(=O)O)NC(=O)[C@@H]2CCCN2C1=O [[Ala5;Arg28]GpTx-1(1-34)] (H-DCLGAMRKCIPDNDKCCRPNLVCSRTHRWCKYVF-NH2; disulfide 2-17, 9-23, 16-30)	77 nM	> 10000 nM	440 nM
CC[C@H](C)[C@@H]1NC(=O)[C@@H]2CSSC[C@@H]3NC(=O)[C@H](C(C)C)NC(=O)[C@H](CC(C)C)NC(=O)[C@H](CC(N)=O)NC(=O)[C@@H]4CCCN4C(=O)[C@H](CCCNC(=N)N)NC(=O)[C@H](CSSC[C@H](NC(=O)[C@@H](N)CC(=O)O)C(=O)N[C@@H](CC(C)C)C(=O)NCC(=O)N[C@@H](C)C(=O)N[C@@H](CCSC)C(=O)N[C@@H](CCCNC(=N)N)C(=O)N[C@@H](CCCCN)C(=O)N2)NC(=O)[C@H](CSSC[C@@H](C(=O)N[C@@H](CCCCN)C(=O)N[C@@H](Cc2c[nH]c4ccccc24)C(=O)N[C@H](C(=O)N[C@@H](Cc2ccccc2)C(N)=O)C(C)C)NC(=O)[C@H](Cc2c[nH]c4ccccc24)NC(=O)[C@H](CCCCN)NC(=O)[C@H](Cc2c[nH]cn2)NC(=O)[C@H]([C@@H](C)O)NC(=O)[C@H](CCCNC(=N)N)NC(=O)[C@H](CO)NC3=O)NC(=O)[C@H](CCCCN)NC(=O)[C@H](CC(=O)O)NC(=O)[C@H](CC(N)=O)NC(=O)[C@H](CC(=O)O)NC(=O)[C@@H]2CCCN2C1=O [[Ala5;Trp32]GpTx-1(1-34)] (H-DCLGAMRKCIPDNDKCCRPNLVCSRTHKWCKWVF-NH2; disulfide 2-17, 9-23, 16-30)	103 nM	> 10000 nM	2980 nM
CC[C@H](C)[C@@H]1NC(=O)[C@@H]2CSSC[C@@H]3NC(=O)[C@H](C(C)C)NC(=O)[C@H](CC(C)C)NC(=O)[C@H](CC(N)=O)NC(=O)[C@@H]4CCCN4C(=O)[C@H](CCCNC(=N)N)NC(=O)[C@H](CSSC[C@H](NC(=O)[C@@H](N)CC(=O)O)C(=O)N[C@@H](CC(C)C)C(=O)NCC(=O)N[C@@H](C)C(=O)N[C@@H](CCSC)C(=O)N[C@@H](CCCNC(=N)N)C(=O)N[C@@H](CCCCN)C(=O)N2)NC(=O)[C@H](CSSC[C@@H](C(=O)N[C@@H](CCCCN)C(=O)N[C@@H](Cc2ccc(O)cc2)C(=O)N[C@@H](Cc2c[nH]c4ccccc24)C(=O)N[C@@H](Cc2ccccc2)C(N)=O)NC(=O)[C@H](Cc2c[nH]c4ccccc24)NC(=O)[C@H](CCCCN)NC(=O)[C@H](Cc2c[nH]cn2)NC(=O)[C@H]([C@@H](C)O)NC(=O)[C@H](CCCNC(=N)N)NC(=O)[C@H](CO)NC3=O)NC(=O)[C@H](CCCCN)NC(=O)[C@H](CC(=O)O)NC(=O)[C@H](CC(N)=O)NC(=O)[C@H](CC(=O)O)NC(=O)[C@@H]2CCCN2C1=O [[Ala5;Trp33]GpTx-1(1-34)] (H-DCLGAMRKCIPDNDKCCRPNLVCSRTHKWCKYWF-NH2; disulfide 2-17, 9-23, 16-30)	34 nM	> 10000 nM	569 nM
